Values quoted from earlier work as cited in patent publication US20190350829A1, “AN ANTIMICROBIAL COMPOSITION” (Conopco, Inc., d/b/a UNILEVER, priority 2016, published 2019).
Where two headings read alike, the source gives them in different places.

## CCCCC(C)CCC(=O)O (centres unmarked) [4-methyl octanoic acid]
  pKa: 4.89
Listed as methyl caprylic acid
  pKa: 4.93
